Experiments:
Assay type in all cases: in vivo
[1] = tested on: Echinochloa crus-galli var. formosensis; test: Test Example 1: herbicidal effect test by soil application in paddy rice; conditions: Echinochloa crus-galli, soil, 336 h; 120 g active ingredient per 10 ares; applied immediately after sowing, flooded pots; 14 days after application; read-out: weed inhibition rate
Procedure, shortened: (§1)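 Pre-emergence paddy soil application, 120 g a.i./10 a, emulsifiable concentrate diluted in water, applied by dropper right after sowing. Seeds (30/species) sown 0–1 cm in puddled, fertilized soil; flooded ~3 cm; glass greenhouse.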

Scirpus juncoides [2] = test: as above; conditions: Schoenoplectiella juncoides, soil, 336 h; 120 g active ingredient per 10 ares; applied immediately after sowing, flooded pots; 14 days after application; read-out: weed inhibition rate
Procedure, shortened: as §1

[3] = tested on: Echinochloa crus-galli var. formosensis; test: Test Example 2: herbicidal effect test by application during growth period of paddy rice; conditions: Echinochloa crus-galli; 120 g per 10 ares; applied seven days after sowing, flooded pots; 14 days after application; read-out: weed inhibition rate
Procedure, shortened: (§2)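 Flooded paddy pot test, greenhouse. Seeds 30/species, 0–1 cm depth, water ~3 cm. EC diluted in water, dropper-applied 7 d post-sowing at 120 g a.i./10 a. Inhibition rate (%) read 14 d after treatment; n=2.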

Scirpus juncoides [4] = test: as above; conditions: Schoenoplectiella juncoides; 120 g per 10 ares; applied seven days after sowing, flooded pots; 14 days after application; read-out: weed inhibition rate
Procedure, shortened: as §2

Digitaria ciliaris [5] = test: Test Example 3: herbicidal effect test by soil application in upland field; conditions: Digitaria ciliaris, 120 g per 10 ares, sprayed one day after sowing, 14 days after application, read-out: weed inhibition rate
Procedure, shortened: (§3)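 Weed inhibition (%) was assessed 14 days after treatment, in duplicate per concentration group. Seeds had been mixed into the upper 1 cm of upland alluvial loam, and the soil surface was sprayed one day later with the diluted emulsifiable concentrate at 120 g active ingredient per 10 ares.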

Echinochloa crus-galli [6] = test: as above; conditions: Echinochloa crus-galli, 120 g per 10 ares, sprayed one day after sowing, 14 days after application, read-out: weed inhibition rate
Procedure, shortened: as §3

Digitaria ciliaris [7] = test: Test Example 4: herbicidal effect test by stem and leaf treatment in upland field; conditions: Digitaria ciliaris; 120 g per 10 ares; sprayed seven days after sowing, upland soil; 14 days after application; read-out: weed inhibition rate
Echinochloa crus-galli [8] = test: as above; conditions: Echinochloa crus-galli; 120 g per 10 ares; sprayed seven days after sowing, upland soil; 14 days after application; read-out: weed inhibition rate

CC(C)[C@]12C[C@@H](OCc3ccccc3C(F)(F)F)[C@](C)(C[C@@H]1Cl)O2 [1-640, (1R,2S,4S,5R)-2-chloro-1-isopropyl-4-methyl-5-[[2-(trifluoromethyl)phenyl]methoxy]-7-oxabicyclo[2.2.1]heptane]
≥ 80%: pest or weed control at 1200 g/ha [1] | pest or weed control at 1200 g/ha (Scirpus juncoides [2]) | inhibition at 1200 g/ha [3] | inhibition at 1200 g/ha (Scirpus juncoides [4])

CC(C)[C@]12C[C@@H](OCc3ccccc3C(F)(F)F)[C@](C)(C[C@@H]1I)O2 [1-765, (1R,2S,4S,5R)-2-iodo-1-isopropyl-4-methyl-5-[[2-(trifluoromethyl)phenyl]methoxy]-7-oxabicyclo[2.2.1]heptane]
≥ 80%: pest or weed control at 1200 g/ha [1] | pest or weed control at 1200 g/ha (Scirpus juncoides [2]) | inhibition at 1200 g/ha [3] | inhibition at 1200 g/ha (Scirpus juncoides [4])

CCCCCCO[C@@H]1C[C@]2(C(C)C)O[C@@]1(C)C[C@@H]2Br [1-669, (1S,2R,4R,5S)-5-bromo-2-hexoxy-1-methyl-4-isopropyl-7-oxabicyclo[2.2.1]heptane]
≥ 80%: pest or weed control at 1200 g/ha [1] | inhibition at 1200 g/ha [3] | inhibition at 1200 g/ha (Scirpus juncoides [4]) | inhibition at 1200 g/ha (Digitaria ciliaris [5]) | inhibition at 1200 g/ha (Echinochloa crus-galli [6]) | inhibition at 1200 g/ha (Digitaria ciliaris [7]) | inhibition at 1200 g/ha (Echinochloa crus-galli [8])

CC(C)[C@@]12C=C[C@@](C)(O1)[C@@H](OCc1ccccc1F)C2 [3-750, (1S,4R,5S)-5-[(2-fluorophenyl)methoxy]-4-methyl-1-isopropyl-7-oxabicyclo[2.2.1]hept-2-ene]
≥ 80%: pest or weed control at 1200 g/ha [1] | pest or weed control at 1200 g/ha (Scirpus juncoides [2]) | inhibition at 1200 g/ha [3] | inhibition at 1200 g/ha (Scirpus juncoides [4]) | inhibition at 1200 g/ha (Digitaria ciliaris [5]) | inhibition at 1200 g/ha (Echinochloa crus-galli [6]) | inhibition at 1200 g/ha (Digitaria ciliaris [7]) | inhibition at 1200 g/ha (Echinochloa crus-galli [8])

CC(C)[C@@]12C[C@H](OCc3ccccn3)[C@@](C)(C[C@H]1I)O2 [1-1126, 2-[[(1R,2S,4S,5R)-5-iodo-1-methyl-4-isopropyl-7-oxabicyclo[2.2.1]heptan-2-yl]oxymethyl]pyridine]
≥ 80%: pest or weed control at 1200 g/ha [1] | pest or weed control at 1200 g/ha (Scirpus juncoides [2]) | inhibition at 1200 g/ha [3] | inhibition at 1200 g/ha (Scirpus juncoides [4]) | inhibition at 1200 g/ha (Digitaria ciliaris [5]) | inhibition at 1200 g/ha (Echinochloa crus-galli [6]) | inhibition at 1200 g/ha (Digitaria ciliaris [7]) | inhibition at 1200 g/ha (Echinochloa crus-galli [8])

Cc1noc(C)c1CO[C@@H]1C[C@]2(C(C)C)O[C@@]1(C)C[C@@H]2Cl [1-663, 4-[[(1S,2R,4R,5S)-5-chloro-4-isopropyl-1-methyl-7-oxabicyclo[2.2.1]heptan-2-yl]oxymethyl]-3,5-dimethyl-isoxazole]
≥ 80%: pest or weed control at 1200 g/ha [1] | pest or weed control at 1200 g/ha (Scirpus juncoides [2]) | inhibition at 1200 g/ha [3] | inhibition at 1200 g/ha (Scirpus juncoides [4])

CC(C)C12CC(OCc3ccccc3OC(F)(F)F)C(C)(CC1I)O2 (centres unmarked) [1-1418, 2-iodo-1-isopropyl-4-methyl-5-[[2-(trifluoromethoxy)phenyl]methoxy]-7-oxabicyclo[2.2.1]heptane]
≥ 80%: pest or weed control at 1200 g/ha [1] | pest or weed control at 1200 g/ha (Scirpus juncoides [2]) | inhibition at 1200 g/ha [3] | inhibition at 1200 g/ha (Scirpus juncoides [4])

COC(=O)c1ccccc1CO[C@H]1C[C@@]2(C(C)C)O[C@]1(C)C[C@H]2I [1-1115, methyl 2-[[(1R,2S,4S,5R)-5-iodo-1-methyl-4-isopropyl-7-oxabicyclo[2.2.1]heptan-2-yl]oxymethyl]benzoate]
≥ 80%: pest or weed control at 1200 g/ha (Scirpus juncoides [2]) | inhibition at 1200 g/ha (Scirpus juncoides [4])

CC(C)[C@@]12C=C[C@@](C)(O1)[C@@H](OCc1ccccc1)C2 [3-748, (1S,4R,5S)-4-methyl-5-phenylmethoxy-1-isopropyl-7-oxabicyclo[2.2.1]hept-2-ene]
≥ 80%: pest or weed control at 1200 g/ha [1] | pest or weed control at 1200 g/ha (Scirpus juncoides [2]) | inhibition at 1200 g/ha [3] | inhibition at 1200 g/ha (Scirpus juncoides [4]) | inhibition at 1200 g/ha (Digitaria ciliaris [5]) | inhibition at 1200 g/ha (Echinochloa crus-galli [6]) | inhibition at 1200 g/ha (Digitaria ciliaris [7]) | inhibition at 1200 g/ha (Echinochloa crus-galli [8])

CC(C)C12CC(OCc3ccccc3C(F)(F)F)C(C)(CC1Cl)O2 (centres unmarked) [1-1301, 5-chloro-1-methyl-4-isopropyl-2-[[2-(trifluoromethyl)phenyl]methoxy]-7-oxabicyclo[2.2.1]heptane]
≥ 80%: pest or weed control at 1200 g/ha [1] | pest or weed control at 1200 g/ha (Scirpus juncoides [2]) | inhibition at 1200 g/ha [3] | inhibition at 1200 g/ha (Scirpus juncoides [4])

COC(=O)c1ccccc1COC1CC2(C(C)C)OC1(C)CC2Cl (centres unmarked) [1-1310, methyl 2-[(5-chloro-4-isopropyl-1-methyl-7-oxabicyclo[2.2.1]heptan-2-yl)oxymethyl]benzoate]
≥ 80%: pest or weed control at 1200 g/ha (Scirpus juncoides [2]) | inhibition at 1200 g/ha (Scirpus juncoides [4])

CC(C)C12CC(OCc3ccncc3)C(C)(CC1Cl)O2 (centres unmarked) [1-1322, 4-[(5-chloro-4-isopropyl-1-methyl-7-oxabicyclo[2.2.1]heptan-2-yl)oxymethyl]pyridine]
≥ 80%: pest or weed control at 1200 g/ha (Scirpus juncoides [2]) | inhibition at 1200 g/ha (Scirpus juncoides [4])

Cc1noc(C)c1CO[C@@H]1C[C@]2(C(C)C)O[C@@]1(C)C[C@@H]2I [1-790, 4-[[(1S,2R,4R,5S)-5-iodo-4-isopropyl-1-methyl-7-oxabicyclo [2.2.1]heptane-2-yl]oxymethyl]-3,5-dimethyl-isoxazole]
≥ 80%: pest or weed control at 1200 g/ha [1] | pest or weed control at 1200 g/ha (Scirpus juncoides [2]) | inhibition at 1200 g/ha [3] | inhibition at 1200 g/ha (Scirpus juncoides [4])

CC(C)[C@]12C[C@@H](OCc3ccccc3OC(F)(F)F)[C@](C)(C[C@@H]1I)O2 [1-750, (1R,2S,4S,5R)-2-iodo-1-isopropyl-4-methyl-5-[[2-(trifluoromethoxy)phenyl]methoxy]-7-oxabicyclo[2.2.1]heptane]
≥ 80%: pest or weed control at 1200 g/ha [1] | pest or weed control at 1200 g/ha (Scirpus juncoides [2]) | inhibition at 1200 g/ha [3] | inhibition at 1200 g/ha (Scirpus juncoides [4])

CC(C)C12CC(OCc3cccnc3)C(C)(CC1Cl)O2 (centres unmarked) [1-1321, 3-[(5-chloro-4-isopropyl-1-methyl-7-oxabicyclo[2.2.1]heptan-2-yl)oxymethyl]pyridine]
≥ 80%: pest or weed control at 1200 g/ha (Scirpus juncoides [2]) | inhibition at 1200 g/ha (Scirpus juncoides [4])

CC(C)[C@]12CC(OCc3ccccc3OC(F)(F)F)[C@](C)(C[C@@H]1Cl)O2 (mixture of isomers) [1-627, (1R,2S,4S,SR)-2-chloro-1-isopropyl-4-methyl-5-[[2-(trifluoromethoxy)phenyl]methoxy]-7-oxabicyclo[2.2.1]heptane]
≥ 80%: pest or weed control at 1200 g/ha [1] | pest or weed control at 1200 g/ha (Scirpus juncoides [2]) | inhibition at 1200 g/ha [3] | inhibition at 1200 g/ha (Scirpus juncoides [4])

Cc1noc(C)c1COC1CC2(C(C)C)OC1(C)CC2Cl (centres unmarked) [1-1325, 4-[(5-chloro-4-isopropyl-1-methyl-7-oxabicyclo[2.2.1]heptan-2-yl)oxymethyl]-3,5-dimethyl-isoxazole]
≥ 80%: pest or weed control at 1200 g/ha [1] | pest or weed control at 1200 g/ha (Scirpus juncoides [2]) | inhibition at 1200 g/ha [3] | inhibition at 1200 g/ha (Scirpus juncoides [4])

CC(C)[C@]12C[C@@H](OCc3cccnc3)[C@](C)(C[C@@H]1I)O2 [1-786, 3-[[(1S,2R,4R,5S)-5-iodo-4-isopropyl-1-methyl-7-oxabicyclo[2.2.1]heptan-2-yl]oxymethyl]pyridine]
≥ 80%: pest or weed control at 1200 g/ha (Scirpus juncoides [2]) | inhibition at 1200 g/ha (Scirpus juncoides [4])

COC(=O)c1ccccc1COC1CC2(C(C)C)OC1(C)CC2I (centres unmarked) [1-1442, methyl 2-[(5-iodo-4-isopropyl-1-methyl-7-oxabicyclo[2.2.1]heptan-2-yl)oxymethyl]benzoate]
≥ 80%: pest or weed control at 1200 g/ha (Scirpus juncoides [2]) | inhibition at 1200 g/ha (Scirpus juncoides [4])

CC(C)C12CC(OCc3ccccc3C(F)(F)F)C(C)(CC1I)O2 (centres unmarked) [1-1433, 2-iodo-1-isopropyl-4-methyl-5-[[2-(trifluoromethyl)phenyl]methoxy]-7-oxabicyclo[2.2.1]heptane]
≥ 80%: pest or weed control at 1200 g/ha [1] | pest or weed control at 1200 g/ha (Scirpus juncoides [2]) | inhibition at 1200 g/ha [3] | inhibition at 1200 g/ha (Scirpus juncoides [4])

— patent EP4707280A1, “1,4-CINEOLE DERIVATIVE AND INTERMEDIATE THEREOF, HERBICIDE CONTAINING SAID DERIVATIVE AS ACTIVE INGREDIENT, METHOD FOR USING HERBICIDE, AND METHOD FOR PREPARING AGROCHEMICAL COMPOSITION” (HOKKO CHEMICAL INDUSTRY CO., LTD., priority 2023, dated 2024)
